Test results published in US10214710B2, “Intercalated bleach compositions, related methods of manufacture and use” (The Clorox Company, priority 2013, dated 2019).

Assays:
[1] = Relative ratings of solid hypochlorite bleach products; conditions: relative rating
[2] = Humidity stability, storage at 80° F. and 80% relative humidity; type: physicochemical
Description: In addition to the stability testing described above, the magnesium intercalated bleach compositions were tested for their resistance to humidity (i.e., their ability to resist degradation upon exposure to humidity). The results were compared with the humidity stability of alternative solid hypochlorite releasing products, specifically dibasic magnesium hypochlorite and a mixture of calcium hypochlorite and magnesium oxide. […] As shown, the initial weight percent hypochlorite was measured. Some samples were stored open, while others were stored closed, and the weight percentage of remaining hypochlorite was measured after the 2 month storage.
Two MIB samples were tested.

[3] = pH buffering and hypochlorite release on HCl addition; type: physicochemical
Description: The buffering characteristics of the MIB compositions, as well as the ability to accelerate release of hypochlorite through addition of an acid were tested. It is believed that the MgO and/or Mg(OH)2 component present within the intercalated bleach compound acts to buffer the pH to a preferred region (e.g., about 8 to about 11.5) for enhanced hypochlorite stability. FIG. 4A plots the pH profile over time as hydrochloric acid (HCl) is added to the MIB aqueous solution at periodic intervals.
FIG. 4B plots the concentration of hypochlorite in solution (ppm of OCl) as a function of how many millimoles of HCl are added.
FIGS. 5A-5B plot similar data as described above with respect to FIGS. 4A-4B, but for a dibasic magnesium hypochlorite composition including 34% available chlorine by weight. […] As such, the dibasic magnesium hypochlorite is not capable of maintaining a relatively high pH for the solution, as are the MIB compositions. Such improved buffering capacity (i.e., the ability to maintain a higher pH for longer) greatly improves the stability of the bleach composition.

[4] = Differential scanning calorimetry (DSC) thermodynamic stability and adjuvant compatibility; type: physicochemical

## [Li+].[O-]Cl [Li(OCl)2, lithium hypochlorite]
[1]
  Bleach Stability: 1
  Moisture Tolerance: 3
  Solution Clarity: 5

## O=C1CN(Cl)C(=O)N1Cl [Dichlorohydantoin]
[1]
  Bleach Stability: 5
  Moisture Tolerance: 1
  Solution Clarity: 1

## Mg(OCl)2.2Mg(OH)2 [dibasic magnesium hypochlorite]
[2]; 2 months, 80° F., 80% relative humidity, stored open
  hypochlorite remaining, open sample: ~0 % by weight
[2]; before the 2 month storage, FIG. 3A
  initial hypochlorite concentration: about 25 % by weight
[3]; FIG. 4B / 5B
  hypochlorite (bleach) release as a function of HCl added: not significantly aided by acid addition
[3]; HCl added at periodic intervals, FIG. 4A / 5A
  pH (buffering) recovery after HCl addition: significantly slower and less complete

## Trichloromelamine
[1]
  Moisture Tolerance: 3
  Solution Clarity: 1

## sodium hypochlorite phosphate adduct [Na(OCl)2 phosphate adduct]
[1]
  Bleach Stability: 1
  Moisture Tolerance: 3
  Solution Clarity: 5

## [Ca+2].[O-]Cl.[O-]Cl [Calcium hypochlorite, calcium hypochlorite]
[4]; FIG. 7B
  energy given off in exothermic decomposition: 401 J/g
[4]; endothermic for MIB, exothermic for calcium hypochlorite
  decomposition reaction temperature: about 212 °C
[1]
  Bleach Stability: 3
  Moisture Tolerance: 3
  Solution Clarity: 3

## O=c1nc([O-])n(Cl)c(=O)n1Cl.[Na+] [sodium dichloroisocyanurate]
[4]; temperature range of 10° C. to 200° C., FIG. 7C
  exothermic decomposition reactions: no exothermic decomposition reactions
